pIC50: −log10 of the molar value. Read-outs that look alike come from different tables or passages of the source.
Tests used:
Format in all cases: cell-based
Hela = experiment: Antiproliferation assay (MTS), HeLa cells; settings: Homo sapiens, 96 h
Method: (§1) Cells were grown at 37° C. in a humidified atmosphere consisting of 5% CO2 and 95% air.
(§2) Antiproliferation Assays: Cells were plated in a 96-well culture plate with 2000-8000 cells per well. The compounds were prepared in DMSO and used to treat cells in a final concentration of less than 1% DMSO. Compound treatment started after overnight incubation of cells (T0). […] Compound was added to the plate in triplicate wells, and the plates were then incubated for 96 hours. DMSO (compound diluent) was also included and added to the plate in control wells. Cell viability was then determined by MTS assay using the CellTiter 96® aqueous non-radioactive cell proliferation assay system (Promega, Madison, Wis. 53711 USA). A plate reader (Vmax, Molecular Devices, Sunnyvale Calif. 94089 USA) was used to determine the optical densities, and the results were used to deduce concentration-response curves. […] The results were analyzed using linear regression software (GraphPad Prism 5; GraphPad Software Inc. La Jolla Calif. 92037 USA).

K562 = experiment: Antiproliferation assay (MTS), K562 cells; settings: Homo sapiens, K562, 96 h
Method: as §1, §2

MDA-MB-468 = experiment: Antiproliferation assay (MTS), MDA-MB-468 cells; settings: Homo sapiens, MDA-MB-468, 96 h
Method: as §1, §2

MDA-MB-231 = experiment: Antiproliferation assay (MTS), MDA-MB-231 cells; settings: Homo sapiens, MDA-MB-231, 96 h
Method: as §1, §2

[1] = Table 1, read-out: Antiproliferative IC50 Hela
[2] = Table 1, read-out: Antiproliferative IC50 K562
[3] = Table 1, read-out: Antiproliferative IC50 MDA-MB-468
[4] = read-out: Antiproliferative IC50 MDA-MB-231, Table 1

Compound `COc1ccc(Sc2cc(C)c(-c3csc(NC(=O)c4ccncc4)n3)c(C)c2)cc1OC` [Compound 33, N-{4-(4-(3,4-Dimethoxyphenylsulfanyl)-2,6-dimethylphenyl)thiazol-2-yl}isonicotinamide] has a pIC50 (Hela; [1]) of 7.24, a pIC50 (K562; [2]) of 7.55 and a pIC50 (MDA-MB-468; [3]) of 7.14. For the same compound, the pIC50 (MDA-MB-231; [4]) was 7.31.

Compound `Cc1cc(Sc2ccc(O)cc2)cc(C)c1-c1csc(NC(=O)c2ccncc2)n1` [Compound 34, N-{4-(4-(4-Hydroxyphenylsulfanyl)-2,6-dimethylphenyl)thiazol-2-yl}isonicotinamide] has a pIC50 (Hela; [1]) of 6.52, a pIC50 (K562; [2]) of 7.05 and a pIC50 (MDA-MB-468; [3]) of 6.55. For the same compound, the pIC50 (MDA-MB-231; [4]) was 6.74.

With `Cc1cc(Sc2ccc(N)cc2)cc(C)c1-c1csc(NC(=O)c2ccncc2)n1` [Compound 35, N-{4-(4-(4-Aminophenylsulfanyl)-2,6-dimethylphenyl)thiazol-2-yl}isonicotinamide] the pIC50 (Hela; [1]) was 7.36, the pIC50 (K562; [2]) was 7.58 and the pIC50 (MDA-MB-468; [3]) was 7.02. For the same compound, the pIC50 (MDA-MB-231; [4]) was 7.33.

`CC(=O)Nc1ccc(Sc2cc(C)c(-c3csc(NC(=O)c4ccncc4)n3)c(C)c2)cc1` [Compound 36, N-{4-(4-(4-Acetylaminophenylsulfanyl)-2,6-dimethylphenyl)thiazol-2-yl}isonicotinamide] showed a pIC50 (Hela; [1]) of 7.61, a pIC50 (K562; [2]) of 7.72 and a pIC50 (MDA-MB-468; [3]) of 7.20. It also gave a pIC50 (MDA-MB-231; [4]) of 7.35.

In the case of `Cc1cc(Sc2ccc(Br)cc2)cc(C)c1-c1csc(NC(=O)c2ccncc2)n1` [Compound 37, N-{4-(4-(4-Bromophenylsulfanyl)-2,6-dimethylphenyl)thiazol-2-yl}isonicotinamide], the pIC50 (Hela; [1]) was 6.61, the pIC50 (K562; [2]) was 7.20 and the pIC50 (MDA-MB-468; [3]) was 6.64. The pIC50 (MDA-MB-231; [4]) was 6.83.

Compound `Cc1cc(Sc2cccc(Cl)c2)cc(C)c1-c1csc(NC(=O)c2ccncc2)n1` [Compound 38, N-{4-(4-(3-Chlorophenylsulfanyl)-2,6-dimethylphenyl)thiazol-2-yl}isonicotinamide] has a pIC50 (Hela; [1]) of 6.30, a pIC50 (K562; [2]) of 6.89 and a pIC50 (MDA-MB-468; [3]) of 6.45. It also gave a pIC50 (MDA-MB-231; [4]) of 6.71.

For `Cc1cc(Sc2ccccc2Cl)cc(C)c1-c1csc(NC(=O)c2ccncc2)n1` [Compound 39, N-{4-(4-(2-Chlorophenylsulfanyl)-2,6-dimethylphenyl)thiazol-2-yl}isonicotinamide], the pIC50 (Hela; [1]) was 6.68, the pIC50 (K562; [2]) was 7.44 and the pIC50 (MDA-MB-468; [3]) was 7.13. The pIC50 (MDA-MB-231; [4]) was 7.25.

`Cc1cc(Sc2ccc(Cl)cc2)cc(C)c1-c1csc(NC(=O)c2ccncc2)n1` [Compound 40, N-{4-(4-(4-Chlorophenylsulfanyl)-2,6-dimethylphenyl)thiazol-2-yl}isonicotinamide] was tested, and the pIC50 (Hela; [1]) was 6.23, the pIC50 (K562; [2]) was 7.03 and the pIC50 (MDA-MB-468; [3]) was 6.91. For the same compound, the pIC50 (MDA-MB-231; [4]) was 6.70.

`Cc1cc(Sc2nccn2C)cc(C)c1-c1csc(NC(=O)c2ccncc2)n1` [Compound 41, N-(4-(2,6-Dimethyl-4-((1-methyl-1H-imidazol-2-yl)thio)phenyl)thiazol-2-yl)isonicotinamide] gave a pIC50 (Hela; [1]) of 7.21, a pIC50 (K562; [2]) of 7.51 and a pIC50 (MDA-MB-468; [3]) of 7.20. It also gave a pIC50 (MDA-MB-231; [4]) of 7.06.

In the case of `Cc1cc(Sc2ccc(N(S(C)(=O)=O)S(C)(=O)=O)cc2)cc(C)c1-c1csc(NC(=O)c2ccncc2)n1` [Compound 42, N-(4-(2,6-Dimethyl-4-((4-(N-(methylsulfonyl)methylsulfonamido)phenyl)thio)phenyl)thiazol-2-yl)isonicotinamide], the pIC50 (Hela; [1]) was 6.78, the pIC50 (K562; [2]) was 7.23 and the pIC50 (MDA-MB-468; [3]) was 6.92. The pIC50 (MDA-MB-231; [4]) was 7.12.

With `Cc1cc(Sc2ccc(NS(C)(=O)=O)cc2)cc(C)c1-c1csc(NC(=O)c2ccncc2)n1` [Compound 43, N-(4-(2,6-Dimethyl-4-((4-(methylsulfonamido)phenyl)thio)phenyl)thiazol-2-yl)isonicotinamide] the pIC50 (Hela; [1]) was 7.18, the pIC50 (K562; [2]) was 7.58 and the pIC50 (MDA-MB-468; [3]) was 7.31. The pIC50 (MDA-MB-231; [4]) was 7.27.

For `Cc1cc(C)c(-c2csc(NC(=O)Cc3ccncc3)n2)c(C)c1` [Compound 47, N-(4-Mesitylthiazol-2-yl)-2-(pyridin-4-yl)acetamide], the pIC50 (Hela; [1]) was 6.21, the pIC50 (K562; [2]) was 6.42 and the pIC50 (MDA-MB-468; [3]) was 6.52. It also gave a pIC50 (MDA-MB-231; [4]) of 6.51.

`COc1ccc(Oc2cc(C)c(-c3csc(NC(=O)c4ccncc4)n3)c(C)c2)cc1` [Compound 48, N-(4-(4-(4-Methoxyphenoxy)-2,6-dimethylphenyl)thiazol-2-yl)isonicotinamide] was tested, and the pIC50 (Hela; [1]) was 7.31, the pIC50 (K562; [2]) was 7.46 and the pIC50 (MDA-MB-468; [3]) was 7.43. For the same compound, the pIC50 (MDA-MB-231; [4]) was 7.49.

Work on `COc1ccc(Oc2cc(C)c(-c3csc(NC(=O)c4ccnc(F)c4)n3)c(C)c2)cc1` [Compound 49, 2-Fluoro-N-(4-(4-(4-methoxyphenoxy)-2,6-dimethylphenyl)thiazol-2-yl)isonicotinamide] yielded a pIC50 (Hela; [1]) of 7.37, a pIC50 (K562; [2]) of 7.79 and a pIC50 (MDA-MB-468; [3]) of 7.40. For the same compound, the pIC50 (MDA-MB-231; [4]) was 7.70.

With `Cc1cc(C)c(-c2csc(NC(=O)Cc3ccncc3)n2)c(C)c1` [II-93, N-(4-Mesitylthiazol-2-yl)-2-(pyridin-4-yl)acetamide] the pIC50 (Hela; Table 2, read-out: Antiproliferative IC50 Hela) was 6.21, the pIC50 (K562; Table 2, read-out: Antiproliferative IC50 K562) was 6.42 and the pIC50 (MDA-MB-468; Table 2, read-out: Antiproliferative IC50 MDA-MB-468) was 6.52. It also gave a pIC50 (MDA-MB-231; read-out: Antiproliferative IC50 MDA-MB-231, Table 2) of 6.51.

— patent US8999983B2, “Modulators of Hec1 activity and methods therefor” (Taivex Therapeutics Corporation, priority 2011, dated 2015)
